Data on 20 molecules can be found in US11234971B2, “Methods of treating cancer comprising administration of a glucocorticoid receptor modulator and a cancer chemotherapy agent” (Corcept Therapeutics Incorporated, priority 2018, dated 2022).

Each structure is given as a SMILES string.

Test [1] deals with OVCAR-5 human ovarian cancer cells. The test can be described thus: OVCAR-5 cell growth (Cell Titer-Glo) with chemotherapy agents with or without dexamethasone and relacorilant. Format: cell-based. The note with it: for IC50 (decrease in IC50 of the agent from dexamethasone-alone to relacorilant + dexamethasone) / Max effect (increase in maximal cell toxicity of the agent from dexamethasone-alone to relacorilant + dexamethasone): OVCAR-5, 100 nM dexamethasone, 300 nM relacorilant; for Max effect (increase in maximal cell toxicity of the agent from dexamethasone-alone to relacorilant + dexamethasone): high doses of chemotherapeutic. The method, then: The initial cell density was chosen to be low enough to allow for several population doublings (typically 3 to 5) during the indicated incubation period. […] After 48 hours of incubation, serially diluted test agents in growth medium were added to each well. After 72 hours of culture, the plated cells and Cell Titer-Glo® (Promega G7571) reagents were brought to room temperature to equilibrate for 30 minutes. 200 μL of Cell Titer-Glo® reagent was then added to each well, the plate was shaken for two minutes, and then left to equilibrate for ten minutes. The Cell Titer-Glo® cell viability assay uses ATP levels to determine cell numbers. After this equilibration, luminescence was read on the Biotech Synergy II microplate reader. The percent control (% C) of cell growth for each test concentration was calculated relative to untreated wells. All tests were performed in quadruplicate. Individual assay plates were evaluated for appropriate signal and well-to-well variance in the control wells for quality control.

For test [2], the system named is whole blood gene expression. In words: Whole blood gene expression after 28 days of enzalutamide in cancer patients. Format: in vivo. The following applies: human cancer patients, all p-values greater than 0.5. From the text:
Enzalutamide is an androgen receptor antagonist used in the treatment of hormone-sensitive cancers such as prostate cancer. […] The small circular markers indicate the change in gene expression for individual genes. None of the gene expression levels changes following enzalutamide (as compared to baseline levels) reach significance (all p-values are greater than 0.5).

The test system of the next test is MIA PaCa-2 xenograft. In words: MIA PaCa-2 xenograft tumor growth in immunodeficient mice. Format: in vivo. The following applies: single agent. From the text:
The present example, Example 3, provides results of administration of the glucocorticoid receptor modulator relacorilant to cancerous cells. […] The MIA PaCa-2 xenograft model uses MIA PaCa-2 cell-line cells (pancreatic tumor cells derived from a pancreatic adenocarcinoma from a patient) engrafted into immunodeficient mice. The ovarian OVCAR-5 cell line is derived from a human epithelial carcinoma of the ovary, and was established from ascitic fluid obtained (prior to cytotoxic treatment) from a patient with progressive ovarian adenocarcinoma.
FIG. 10A. Relacorilant sensitizes the MIA PaCa-2 xenograft to paclitaxel. Tumor volume of PaCa-2 xenograft tumors implanted in immunodeficient mice is shown as a function of time (days) after implantation in the presence of vehicle (filled circles), paclitaxel (7.5 mg/kg; filled squares), relacorilant alone (upwardly pointing triangles), and relacorilant+7.5 mg/kg paclitaxel (downwardly pointing triangles). 7.5 mg/kg paclitaxel was administered three times (at the days indicated by the dashed vertical lines, indicating days 8, 12, and 16 following tumor implantation into the mice).
FIG. 10B. Relacorilant with Paclitaxel Reduces MIA PaCa-2 xenograft Tumor Volume. Initial tumor volume of PaCa-2 xenograft tumors implanted in immunodeficient mice was less than 400 cubic millimeters (mm^3). […] Tumor size progression is thus indicated by lines descending from the top (100%) value. The tumor-bearing mice were treated with vehicle, relacorilant (30 mg/kg every day), paclitaxel (three doses of 7.5 mg/kg paclitaxel, one dose administered on each of the days indicated in FIG. 10A), and the combination relacorilant (30 mg/kg every day) with paclitaxel (7.5 mg/kg doses of paclitaxel each administered on days 8, 12, and 16 post implantation). […] Xenograft tumor growth was slowed by combined relacorilant+paclitaxel as compared to either paclitaxel alone or relacorilant alone. Relacorilant thus enhanced sensitivity to paclitaxel in the pancreatic MIA PaCa-2 xenograft model.

As to `O=c1[nH]cc(F)c(=O)[nH]1` [5-FU], in test [1], the “IC50 (decrease in IC50 of the agent from dexamethasone-alone to relacorilant + dexamethasone)” value is reported as “+ (~10-59% decrease in IC50 from the dexamethasone-alone to the relacorilant + dexamethasone treatments)” and the “Max effect (increase in maximal cell toxicity of the agent from dexamethasone-alone to relacorilant + dexamethasone)” value was “−”.
On to `N.N.O=C([O-])C1(C(=O)[O-])CCC1.[Pt+2]` [carboplatin], for which, in test [1] (OVCAR-5 with 100 nM dexamethasone, 1 nM to 2187 nM carboplatin), the cell viability entry was “dose dependent”.
For `CNC(=O)c1ccc(N2C(=S)N(c3ccc(C#N)c(C(F)(F)F)c3)C(=O)C2(C)C)cc1F` [enzalutamide], in test [2], the “changes in gene expression levels compared to baseline” value was “did not result in any significant changes”.
For the molecule `Nc1nc2[nH]cc(CCc3ccc(C(=O)N[C@@H](CCC(=O)O)C(=O)O)cc3)c2c(=O)[nH]1` [Pemetrexed], in test [1], the “IC50 (decrease in IC50 of the agent from dexamethasone-alone to relacorilant + dexamethasone)” value is on record as “++ (>60% decrease in IC50 from the dexamethasone-alone to the relacorilant + dexamethasone treatments)”.
Consider `Cc1c[nH]c(-c2cnc(NCCNc3ccc(C#N)cn3)nc2-c2ccc(Cl)cc2Cl)n1` [CHIR-99021], for which, in test [1], the “IC50 (decrease in IC50 of the agent from dexamethasone-alone to relacorilant + dexamethasone)” value is recorded as “−” and the “Max effect (increase in maximal cell toxicity of the agent from dexamethasone-alone to relacorilant + dexamethasone)” value is “−”.
As for `O=C(c1cc(Cc2n[nH]c(=O)c3ccccc23)ccc1F)N1CCN(C(=O)C2CC2)CC1` [Olaparib], in test [1], the “IC50 (decrease in IC50 of the agent from dexamethasone-alone to relacorilant + dexamethasone)” value is “−” and the “Max effect (increase in maximal cell toxicity of the agent from dexamethasone-alone to relacorilant + dexamethasone)” value was “−”.
On to `C#Cc1cccc(Nc2ncnc3cc(OCCOC)c(OCCOC)cc23)c1` [Erlotinib], for which the “IC50 (decrease in IC50 of the agent from dexamethasone-alone to relacorilant + dexamethasone)” value in test [1] is on record as “−”.
`CCC1=C[C@@H]2CN(C1)Cc1c([nH]c3ccccc13)[C@@](C(=O)OC)(c1cc3c(cc1OC)N(C)[C@H]1[C@@](O)(C(=O)OC)[C@H](OC(C)=O)[C@]4(CC)C=CCN5CC[C@]31[C@@H]54)C2` [Vinorelbine]: the “IC50 (decrease in IC50 of the agent from dexamethasone-alone to relacorilant + dexamethasone)” value in test [1] is “+ (~10-59% decrease in IC50 from the dexamethasone-alone to the relacorilant + dexamethasone treatments)”.
On the same count and under the same terms, for `CC(C)(C)c1[nH]cnc1/C=c1\[nH]c(=O)/c(=C/c2ccccc2)[nH]c1=O` [Plinabulin] the value was “−”; for `COc1cccc2c1C(=O)c1c(O)c3c(c(O)c1C2=O)C[C@@](O)(C(=O)CO)C[C@@H]3O[C@H]1C[C@H](N)[C@H](O)[C@H](C)O1` [Doxorubicin], “+ (~10-59% decrease in IC50 from the dexamethasone-alone to the relacorilant + dexamethasone treatments)”.
Turning to `CC(=O)Nc1cccc(-n2c(=O)n(C3CC3)c(=O)c3c(Nc4ccc(I)cc4F)n(C)c(=O)c(C)c32)c1` [Trametinib], in test [1], the “IC50 (decrease in IC50 of the agent from dexamethasone-alone to relacorilant + dexamethasone)” value is on record as “−” and the “Max effect (increase in maximal cell toxicity of the agent from dexamethasone-alone to relacorilant + dexamethasone)” value was “−”.
As to `C=C1C[C@@H]2CC[C@@]34C[C@H]5O[C@H]6[C@@H](O3)[C@H]3O[C@H](CC[C@@H]3O[C@H]6[C@H]5O4)CC(=O)C[C@@H]3[C@@H](OC)[C@@H](C[C@H](O)CN)O[C@H]3C[C@H]3O[C@@H](CC[C@@H]1O2)C[C@@H](C)C3=C` [Eribulin], in test [1], the “IC50 (decrease in IC50 of the agent from dexamethasone-alone to relacorilant + dexamethasone)” value is recorded as “++ (>60% decrease in IC50 from the dexamethasone-alone to the relacorilant + dexamethasone treatments)”.
For `CS(=O)(=O)CCNCc1ccc(-c2ccc3ncnc(Nc4ccc(OCc5cccc(F)c5)c(Cl)c4)c3c2)o1` [Lapatinib], in test [1], the “IC50 (decrease in IC50 of the agent from dexamethasone-alone to relacorilant + dexamethasone)” value is recorded as “+ (~10-59% decrease in IC50 from the dexamethasone-alone to the relacorilant + dexamethasone treatments)” and the “Max effect (increase in maximal cell toxicity of the agent from dexamethasone-alone to relacorilant + dexamethasone)” value is “−”.
`CC(=O)O[C@H]1C(=O)[C@@]2(C)[C@H]([C@H](OC(=O)c3ccccc3)[C@]3(O)C[C@H](OC(=O)[C@H](O)[C@@H](NC(=O)c4ccccc4)c4ccccc4)C(C)=C1C3(C)C)[C@]1(OC(C)=O)CO[C@@H]1C[C@@H]2O` [paclitaxel]: the “tumor growth (tumor volume over time)” value in the test on MIA PaCa-2 xenograft (paclitaxel 7.5 mg/kg on days 8, 12 and 16) is given as “ineffective in delaying tumor growth”. Further, in the test on MIA PaCa-2 xenograft (relacorilant 30 mg/kg every day or paclitaxel 7.5 mg/kg on days 8, 12, 16), the “time to progression (fraction of tumors whose volume remained below 400 mm^3)” value was “ineffective alone in delaying tumor growth”.
Consider `CC1(C)CCC(CN2CCN(c3ccc(C(=O)NS(=O)(=O)c4ccc(NCC5CCOCC5)c([N+](=O)[O-])c4)c(Oc4cnc5[nH]ccc5c4)c3)CC2)=C(c2ccc(Cl)cc2)C1` [Venetoclax], for which, in test [1], the “IC50 (decrease in IC50 of the agent from dexamethasone-alone to relacorilant + dexamethasone)” value was “+ (~10-59% decrease in IC50 from the dexamethasone-alone to the relacorilant + dexamethasone treatments)” and the “Max effect (increase in maximal cell toxicity of the agent from dexamethasone-alone to relacorilant + dexamethasone)” value is “−”.
For `CCN(CC)CCCC(C)Nc1ccnc2cc(Cl)ccc12` (stereo not shown) [Chloroquine], the “IC50 (decrease in IC50 of the agent from dexamethasone-alone to relacorilant + dexamethasone)” value in test [1] was “−”.
In the case of `N.N.[Cl][Pt][Cl]` [cisplatin], in test [1], the “IC50 (decrease in IC50 of the agent from dexamethasone-alone to relacorilant + dexamethasone)” value is listed as “+ (~10-59% decrease in IC50 from the dexamethasone-alone to the relacorilant + dexamethasone treatments)” and the “Max effect (increase in maximal cell toxicity of the agent from dexamethasone-alone to relacorilant + dexamethasone)” value is recorded as “+ (consistent ~0-40% increase in toxicity at high doses of chemotherapeutic from the dexamethasone-alone to the relacorilant + dexamethasone treatments)”.
On to `O=C(O)c1ccc(-c2c[nH]c3ncc(-c4ccccc4)cc23)cc1C1CCCC1` [GSK650394], for which, in test [1], the “IC50 (decrease in IC50 of the agent from dexamethasone-alone to relacorilant + dexamethasone)” value is listed as “−” and the “Max effect (increase in maximal cell toxicity of the agent from dexamethasone-alone to relacorilant + dexamethasone)” value is “−”.
Regarding `COc1cc([C@@H]2c3cc4c(cc3[C@@H](O[C@@H]3O[C@@H]5CO[C@@H](C)O[C@H]5[C@H](O)[C@H]3O)[C@H]3COC(=O)[C@H]23)OCO4)cc(OC)c1O` [Etoposide], in test [1], the “IC50 (decrease in IC50 of the agent from dexamethasone-alone to relacorilant + dexamethasone)” value was “+ (~10-59% decrease in IC50 from the dexamethasone-alone to the relacorilant + dexamethasone treatments)” and the “Max effect (increase in maximal cell toxicity of the agent from dexamethasone-alone to relacorilant + dexamethasone)” value is reported as “−”.
Turning to `CCc1c2c(nc3ccc(OC(=O)N4CCC(N5CCCCC5)CC4)cc13)-c1cc3c(c(=O)n1C2)COC(=O)[C@]3(O)CC` [Irinotecan], in test [1], the “IC50 (decrease in IC50 of the agent from dexamethasone-alone to relacorilant + dexamethasone)” value was “+ (~10-59% decrease in IC50 from the dexamethasone-alone to the relacorilant + dexamethasone treatments)” and the “Max effect (increase in maximal cell toxicity of the agent from dexamethasone-alone to relacorilant + dexamethasone)” value is recorded as “−”.
